# Assay results reported in US10647713B2 (Nimbus Lakshmi, Inc., priority 2016, dated 2020).
# Target: human TYK2 (JH2domain-pseudokinase) (Homo sapiens (Human), UniProt P29597)
# Experiment: TYK2 JH2 Domain Binding Assay (KINOMEscan, DiscoveRx)
# Settings: 11-point dilution, duplicate
# Method: Binding constants for compounds of the present invention against the JH2 domain were determined by the following protocol for a KINOMEscan® assay (DiscoveRx). A fusion protein of a partial length construct of human TYK2 (JH2domain-pseudokinase) (amino acids G556 to D888 based on reference sequence NP_003322.3) and the DNA binding domain of NFkB was expressed in transiently transfected HEK293 cells. From these HEK 293 cells, extracts were prepared in M-PER extraction buffer (Pierce) in the presence of Protease Inhibitor Cocktail Complete (Roche) and Phosphatase Inhibitor Cocktail Set II (Merck) per manufacturers' instructions. The TYK2 (JH2domain-pseudokinase) fusion protein was labeled with a chimeric double-stranded DNA tag containing the NFkB binding site (5′-GGGAATTCCC-3′) fused to an amplicon for qPCR readout, which was added directly to the expression extract (the final concentration of DNA-tag in the binding reaction is 0.1 nM).
# Streptavidin-coated magnetic beads (Dynal M280) were treated with a biotinylated small molecule ligand for 30 minutes at room temperature to generate affinity resins the binding assays. The liganded beads were blocked with excess biotin and washed with blocking buffer (SeaBlock (Pierce), 1% BSA, 0.05% Tween 20, 1 mM DTT) to remove unbound ligand and to reduce nonspecific binding.
# The binding reaction was assembled by combining 16 μl of DNA-tagged kinase extract, 3.8 μl liganded affinity beads, and 0.18 μl test compound (PBS/0.05% Tween 20/10 mM DTT/0.1% BSA/2 μg/ml sonicated salmon sperm DNA)]. Extracts were used directly in binding assays without any enzyme purification steps at a ≥10,000-fold overall stock dilution (final DNA-tagged enzyme concentration <0.1 nM). Extracts were loaded with DNA-tag and diluted into the binding reaction in a two step process. First extracts were diluted 1:100 in 1× binding buffer (PBS/0.05% Tween 20/10 mM DTT/0.1% BSA/2 μg/ml sonicated salmon sperm DNA) containing 10 nM DNA-tag. This dilution was allowed to equilibrate at room temperature for 15 minutes and then subsequently diluted 1:100 in 1× binding buffer. Test compounds were prepared as 111× stocks in 100% DMSO. Kds were determined using an 11-point 3-fold compound dilution series with three DMSO control points. All compounds for Kd measurements are distributed by acoustic transfer (non-contact dispensing) in 100% DMSO. The compounds were then diluted directly into the assays such that the final concentration of DMSO was 0.9%. All reactions performed in polypropylene 384-well plates. Each was a final volume of 0.02 mL. Assays were incubated with shaking for 1 hour at room temperature. Then the beads were pelleted and washed with wash buffer (1×PBS, 0.05% Tween 20) to remove displaced kinase and test compound. The washed based were re-suspended in elution buffer (1×PBS, 0.05% Tween 20, 0.5 μM non-biotinylated affinity ligand) and incubated at room temperature with shaking for 30 minutes. The kinase concentration in the eluates was measured by qPCR. qPCR reactions were assembled by adding 2.5 μL of kinase eluate to 7.5 μL of qPCR master mix containing 0.15 μM amplicon primers and 0.15 μM amplicon probe. The qPCR protocol consisted of a 10 minute hot start at 95° C., followed by 35 cycles of 95° C. for 15 seconds, 60° C. for 1 minute.
# Test compounds were prepared as 111× stocks in 100% DMSO. Kds were determined using an 11-point 3-fold compound dilution series with three DMSO control points. All compounds for Kd measurements are distributed by acoustic transfer (non-contact dispensing) in 100% DMSO. The compounds were then diluted directly into the assays such that the final concentration of DMSO was 0.9%. The Kds were determined using a compound top concentration of 30,000 nM. Kd measurements were performed in duplicate.
# Binding constants (Kds) were calculated with a standard dose-response curve using the Hill equation: […]
# The Hill Slope was set to −1. […]
# human TYK2 (JH2domain-pseudokinase), sequence (P29597 556-888): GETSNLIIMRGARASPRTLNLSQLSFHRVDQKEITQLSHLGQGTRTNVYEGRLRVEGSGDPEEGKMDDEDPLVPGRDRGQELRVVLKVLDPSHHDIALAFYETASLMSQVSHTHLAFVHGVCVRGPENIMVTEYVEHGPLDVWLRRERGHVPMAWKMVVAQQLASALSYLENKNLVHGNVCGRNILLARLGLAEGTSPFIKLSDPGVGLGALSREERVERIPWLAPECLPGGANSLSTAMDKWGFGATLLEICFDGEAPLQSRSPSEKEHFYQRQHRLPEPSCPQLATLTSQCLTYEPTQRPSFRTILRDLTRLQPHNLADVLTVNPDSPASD
row,Kd [nM],Compound
1,> 10,"COc1ccccc1Nc1cc(NC(=O)C2CC2)nc2[nH]c(C(F)F)nc12 [I-28, N-(2-(difluoromethyl)-7-((2-methoxyphenyl)amino)-3H-imidazo[4,5-b]pyridin-5-yl)cyclopropanecarboxamide]"
2,> 10,"COc1c(C#N)cccc1Nc1cc(NC(=O)C2CC2)nc2[nH]c(C(F)F)nc12 [I-29, N-(7-((3-cyano-2-methoxyphenyl)amino)-2-(difluoromethyl)-3H-imidazo[4,5-b]pyridin-5-yl)cyclopropanecarboxamide]"
3,1 to 10,"COc1c(Nc2cc(Nc3cncc(C#N)n3)nc3[nH]c(C(F)F)nc23)cccc1-c1nnn(C)n1 [I-30, 6-((2-(difluoromethyl)-7-((2-methoxy-3-(2-methyl-2H-tetrazol-5-yl)phenyl)amino)-3H-imidazo[4,5-b]pyridin-5-yl)amino)pyrazine-2-carbonitrile]"
4,1 to 10,"COc1c(Nc2cc(Nc3ccc(N4CCC4)cn3)nc3[nH]c(C(F)F)nc23)cccc1-c1ccn(C)n1 [I-31, N5-(5-(azetidin-1-yl)pyridin-2-yl)-2-(difluoromethyl)-N7-(2-methoxy-3-(1-methyl-1H-pyrazol-3-yl)phenyl)-3H-imidazo[4,5-b]pyridine-5,7-diamine]"
5,0.5 to 1,"COc1c(Nc2cc(Nc3cc(C)cc(C#N)n3)nc3[nH]c(C(F)F)nc23)cccc1-c1nnn(C)n1 [I-32, 6-((2-(difluoromethyl)-7-((2-methoxy-3-(2-methyl-2H-tetrazol-5-yl)phenyl)amino)-3H-imidazo[4,5-b]pyridin-5-yl)amino)-4-methylpicolinonitrile]"
6,0.5 to 1,"COc1c(Nc2cc(Nc3cc(C)cc(C#N)n3)nc3[nH]c(C(F)F)nc23)cccc1-c1ccn(C)n1 [I-33, 6-((2-(difluoromethyl)-7-((2-methoxy-3-(1-methyl-1H-pyrazol-3-yl)phenyl)amino)-3H-imidazo[4,5-b]pyridin-5-yl)amino)-4-methylpicolinonitrile]"
7,> 10,"COc1c(Nc2cc(NC(=O)C3CC3)nc3[nH]c(C(F)F)nc23)cccc1-c1cnn(C)c1 [I-34, N-(2-(difluoromethyl)-7-((2-methoxy-3-(1-methyl-1H-pyrazol-4-yl)phenyl)amino)-3H-imidazo[4,5-b]pyridin-5-yl)cyclopropanecarboxamide]"
8,1 to 10,"COc1cc(C(=O)N2CCCC2)ccc1Nc1cc(NC(=O)C2CC2)nc2[nH]c(C(F)F)nc12 [I-35, N-(2-(difluoromethyl)-7-((2-methoxy-4-(pyrrolidine-1-carbonyl)phenyl)amino)-3H-imidazo[4,5-b]pyridin-5-yl)cyclopropanecarboxamide]"
9,0.1 to 0.5,"COc1c(Nc2cc(Nc3ccc(C(=O)N4CCCC4)c(C(F)(F)F)n3)nc3[nH]c(C(F)F)nc23)cccc1-c1nnn(C)n1 [I-36, (6-((2-(difluoromethyl)-7-((2-methoxy-3-(2-methyl-2H-tetrazol-5-yl)phenyl)amino)-3H-imidazo[4,5-b]pyridin-5-yl)amino)-2-(trifluoromethyl)pyridin-3-yl)(pyrrolidin-1-yl)methanone]"
10,0.1 to 0.5,"COc1c(Nc2cc(Nc3ccc(N4CCCC4=O)c(C#N)n3)nc3[nH]c(C(F)F)nc23)cccc1-c1nnn(C)n1 [I-37, 6-((2-(difluoromethyl)-7-((2-methoxy-3-(2-methyl-2H-tetrazol-5-yl)phenyl)amino)-3H-imidazo[4,5-b]pyridin-5-yl)amino)-3-(2-oxopyrrolidin-1-yl)picolinonitrile]"
11,1 to 10,"COc1c(Nc2cc(Nc3cnc(C)c(C#N)n3)nc3[nH]c(C(F)F)nc23)cccc1-c1nnn(C)n1 [I-38, 6-((2-(difluoromethyl)-7-((2-methoxy-3-(2-methyl-2H-tetrazol-5-yl)phenyl)amino)-3H-imidazo[4,5-b]pyridin-5-yl)amino)-3-methylpyrazine-2-carbonitrile]"
12,0.1 to 0.5,"COc1c(Nc2cc(Nc3ccc(N4CC[C@H](OC)C4)c(C#N)n3)nc3[nH]c(C(F)F)nc23)cccc1-c1nnn(C)n1 [I-39, (S)-6-((2-(difluoromethyl)-7-((2-methoxy-3-(2-methyl-2H-tetrazol-5-yl)phenyl)amino)-3H-imidazo[4,5-b]pyridin-5-yl)amino)-3-(3-methoxypyrrolidin-1-yl)picolinonitrile]"
13,0.1 to 0.5,"COc1c(Nc2cc(Nc3ccc(N4CCC4)c(C#N)n3)nc3[nH]c(C(F)F)nc23)cccc1-c1nnn(C)n1 [I-40, 3-(azetidin-1-yl)-6-((2-(difluoromethyl)-7-((2-methoxy-3-(2-methyl-2H-tetrazol-5-yl)phenyl)amino)-3H-imidazo[4,5-b]pyridin-5-yl)amino)picolinonitrile]"
14,> 10,"COc1c(Nc2cc(NC(=O)C3CC3)nc3[nH]c(C(F)F)nc23)cccc1-c1nc(C)nn1C [I-41, N-(2-(difluoromethyl)-7-((3-(1,3-dimethyl-1H-1,2,4-triazol-5-yl)-2-methoxyphenyl)amino)-3H-imidazo[4,5-b]pyridin-5-yl)cyclopropanecarboxamide]"
15,1 to 10,"COc1c(Nc2cc(Nc3ccc(C(C)C)c(C#N)n3)nc3[nH]c(C(F)F)nc23)cccc1-c1nnn(C)n1 [I-42, 6-((2-(difluoromethyl)-7-((2-methoxy-3-(2-methyl-2H-tetrazol-5-yl)phenyl)amino)-3H-imidazo[4,5-b]pyridin-5-yl)amino)-3-isopropylpicolinonitrile]"
16,0.1 to 0.5,"Cc1ccc(Nc2cc(Nc3ccccc3N(C)S(C)(=O)=O)c3nc(C(F)F)[nH]c3n2)nn1 [I-43, N-(2-((2-(difluoromethyl)-5-((6-methylpyridazin-3-yl)amino)-3H-imidazo[4,5-b]pyridin-7-yl)amino)phenyl)-N-methylmethanesulfonamide]"
17,< 0.1,"CN(c1ccccc1Nc1cc(Nc2cccc(C#N)n2)nc2[nH]c(C(F)F)nc12)S(C)(=O)=O [I-44, N-(2-((5-((6-cyanopyridin-2-yl)amino)-2-(difluoromethyl)-3H-imidazo[4,5-b]pyridin-7-yl)amino)phenyl)-N-methylmethanesulfonamide]"
18,0.1 to 0.5,"Cc1cc(Nc2cc(Nc3ccccc3N(C)S(C)(=O)=O)c3nc(C(F)F)[nH]c3n2)nc(C)n1 [I-45, N-(2-((2-(difluoromethyl)-5-((2,6-dimethylpyrimidin-4-yl)amino)-3H-imidazo[4,5-b]pyridin-7-yl)amino)phenyl)-N-methylmethanesulfonamide]"
19,0.5 to 1,"COc1c(Nc2cc(Nc3ccc(NCCCCl)c(C#N)n3)nc3[nH]c(C(F)F)nc23)cccc1-c1nnn(C)n1 [I-46, 3-((3-chloropropyl)amino)-6-((2-(difluoromethyl)-7-((2-methoxy-3-(2-methyl-2H-tetrazol-5-yl)phenyl)amino)-3H-imidazo[4,5-b]pyridin-5-yl)amino)picolinonitrile]"
20,1 to 10,"COc1c(Nc2cc(Nc3cnc(N4CCOCC4)c(C#N)n3)nc3[nH]c(C(F)F)nc23)cccc1-c1nnn(C)n1 [I-47, 6-((2-(difluoromethyl)-7-((2-methoxy-3-(2-methyl-2H-tetrazol-5-yl)phenyl)amino)-3H-imidazo[4,5-b]pyridin-5-yl)amino)-3-morpholinopyrazine-2-carbonitrile]"
21,1 to 10,"COc1c(Nc2cc(Nc3cnc(N4CC[C@@H](OC)C4)c(C#N)n3)nc3[nH]c(C(F)F)nc23)cccc1-c1nnn(C)n1 [I-48, (R)-6-((2-(difluoromethyl)-7-((2-methoxy-3-(2-methyl-2H-tetrazol-5-yl)phenyl)amino)-3H-imidazo[4,5-b]pyridin-5-yl)amino)-3-(3-methoxypyrrolidin-1-yl)pyrazine-2-carbonitrile]"
